# Source: PubChem BioAssay AID1959 (Broad Institute, 2009)
# Active and inactive are the calls of the source.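 Rule for the calls: active = growth-inhibition EC50 no more than tenfold above the top tested dose; inconclusive = flat fit between 30% and 70% inhibition, or unreliable fit; inactive = EC50 more than tenfold above the top tested dose.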
# System: E. coli NEB5alpha growth, BacTiter-Glo luminescence, 4 h
# Assay: Escherichia coli growth inhibition, dose response, counter-screen for MEX-5/POS-1 RNA-binding inhibitor project, luminescence, NEB5alpha (AID 1959);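 note: pUC19-transformed ampicillin-resistant cells grown in LB with ampicillin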
row,SMILES,EC50
1,NC(N)=NS(=O)(=O)c1ccc(NC(=S)NC(=O)/C=C/c2cccs2)cc1,> 11 µM (inactive)
2,O=C(N/N=C/c1ccc(-c2ccc([N+](=O)[O-])cc2)o1)c1cccnc1,> 11 µM (inactive)
3,NS(=O)(=O)c1ccc(-c2ccc(/C=C3\NC(=S)NC3=O)o2)cc1,> 11 µM (inactive)
4,CN(C)c1ccc(N=Cc2c(O)n(CCC3=CCCCC3)c(=O)[nH]c2=O)cc1,> 11 µM (inactive)
5,Oc1ccc(-c2cn3c(n2)SCC3)cc1O,> 11 µM (inactive)
6,Cc1ccc(/C=C2/C(=O)NC(=O)N(CCc3ccc(F)cc3)C2=O)o1,> 11 µM (inactive)
7,COc1ccccc1-n1c(O)c(/C=C2\C=Nc3ccccc32)c(=O)[nH]c1=O,> 11 µM (inactive)
8,COCCN1C(=O)/C(=C/c2c(OC)cc(OC)cc2OC)C(=O)N(c2ccccc2)C1=O,> 11 µM (inactive)
9,COc1ccc(N=Cc2c(O)ccc3ccccc23)cc1,> 11 µM (inactive)
10,COc1ccc(NC(=O)c2ccc(NCCCN3CCOCC3)c([N+](=O)[O-])c2)cc1,> 11 µM (inactive)
11,CC1(C)CC(=O)C2=C(C1)OC(N)=C(C#N)C2c1ccc(OC(=O)N2CCOCC2)cc1 (configuration not stated),> 11 µM (inactive)
12,O=C(O)c1ccccc1-n1c2ccccc2c2ccccc21,> 11 µM (inactive)
13,O=C(Nc1ccccc1)c1nn(-c2ccccc2)c(=O)cc1C(F)(F)F,> 11 µM (inactive)
14,CN1C[C@H](CO)C=C2c3cccc4[nH]cc(c34)C[C@H]21,> 11 µM (inactive)
15,COc1ccc(NC(=O)CCl)cn1,> 11 µM (inactive)
16,COC(=O)c1ccccc1NCc1cc(=O)oc2cc(O)c(O)cc12,> 11 µM (inactive)
17,O=C(Nc1ccccc1O)c1cccc(S(=O)(=O)Nc2ccccc2O)c1,> 11 µM (inactive)
18,CCC(Oc1ccccc1)C(=O)Nc1ccccn1 (configuration not stated),> 11 µM (inactive)
19,O=C1CSC(=S)N1N1C(=O)c2cccc([N+](=O)[O-])c2C1=O,> 11 µM (inactive)
20,CN1C(=O)C(=Cc2ccc(SC3CCCCC3)o2)C(=O)N(C)C1=O,> 11 µM (inactive)
21,COC(=O)CCC(=O)OC1(C)C(=O)C=C2C=C(C3CC3)OC=C2C1=O (configuration not stated),> 11 µM (inactive)
22,COc1ccc(NC(=O)CN2CCC(NC(=O)C3CCCCC3)CC2)c([N+](=O)[O-])c1,> 11 µM (inactive)
23,O=C(O)Cn1cc(/C=C2\C(=O)NC(=O)N(c3ccc(F)cc3)C2=O)c2ccccc21,> 11 µM (inactive)
24,CCCCC1=CC2=CC(=O)C(C)(OC(=O)CCc3ccccc3)C(=O)C2=CO1 (configuration not stated),> 11 µM (inactive)

row,SMILES,EC50
1,CCOC(=O)c1cc(-c2ccc(/C=C3/C(=O)NC(=O)C(C#N)=C3C)o2)ccc1Cl,> 11 µM (inactive)
2,O=C(O)c1cc(-c2ccc(/C=C3\NC(=O)N(c4ccc(Cl)cc4)C3=O)o2)ccc1Cl,> 11 µM (inactive)
3,COC(=O)/C(C#N)=C/c1c(Oc2cc(C)cc(C)c2)nc2c(C)cccn2c1=O,> 11 µM (inactive)
4,O=C1c2ccccc2C(=O)c2[nH]c(=O)[nH]c21,> 11 µM (inactive)
5,Cc1ccccc1NS(=O)(=O)c1cc(C(=O)N2CCCC2)ccc1C,> 11 µM (inactive)
6,COc1cc(OC)c2c(O)c3c(c(-c4c5c(c(O)c6c(OC)cc(OC)cc46)CO[C@@H](C)[C@H]5O)c2c1)[C@H](O)[C@H](C)OC3,> 11 µM (inactive)
7,Cn1c(=O)c2[nH]c(N=NNc3ccccc3F)nc2n(C)c1=O,> 11 µM (inactive)
8,CCN(CC)C(=O)CNc1ccc(C(F)(F)F)cc1[N+](=O)[O-],> 11 µM (inactive)
9,O=C(O)c1ccc2c(c1)C1C=CCC1C(c1ccncc1)N2 (configuration not stated),> 11 µM (inactive)
10,Cc1nc(S/C(=C/c2ccc(-c3cccc(Cl)c3)o2)C(=O)O)n[nH]1,> 11 µM (inactive)
11,N#Cc1cc(NC(=O)c2ccc(F)cc2)c(=O)n2c1[nH]c1ccccc12,> 11 µM (inactive)
12,O=c1c(/C=C(\O)c2ccccc2)nc2ccccc2n1-c1ccccc1,> 11 µM (inactive)
13,N#CC1=C(N)C2=C(N3CCCCC3)CCCC2C1(C#N)C#N (configuration not stated),> 11 µM (inactive)
14,C=CCN1C(=O)NC(=O)/C(=C/c2c(CCN(C)C(=O)c3ccccc3)cc3c(c2OC)OCO3)C1=O,> 11 µM (inactive)
15,Cc1ccc(C(=O)Oc2oc(-c3ccccc3)nc2C=Nc2ccc(N(C)C)cc2)cc1,> 11 µM (inactive)
16,C=CCc1cccc(/C=N/n2cnnc2)c1O,> 11 µM (inactive)
17,CCOCCCn1c(=NC(=O)c2cccs2)c(C#N)cc2c(=O)n3ccccc3nc21,> 11 µM (inactive)
18,Cn1c(C(=O)NCCCN2CCOCC2)cc2c(=O)n(C)c3ccccc3c21,> 11 µM (inactive)
19,Cc1cc(/C=C2/C(=O)NC(=O)N(c3ccccc3)C2=O)c(C)n1-c1ccc(F)cc1,> 11 µM (inactive)
20,O=C(O)COc1ccc(/C=C/c2nc(-c3ccccc3O)n[nH]2)cc1,> 11 µM (inactive)
21,O=c1[nH]c2ccccc2nc1/C=C/c1ccc(F)cc1,> 11 µM (inactive)
22,COc1ccc(-n2c(NNC(C)=O)nc3sc4c(c3c2=O)CCCC4)cc1,> 11 µM (inactive)
23,COc1ccccc1C1C(C(C)=O)=C(C)N=c2s/c(=C\c3cc(OC)c(OC)c(OC)c3)c(=O)n21 (configuration not stated),> 11 µM (inactive)
